The compounds below were run against Phosphatidylinositol 3-kinase catalytic subunit type 3 (Homo sapiens, UniProt Q8NEB9) (assay: Vps34 Biochemical Assay: Dilution series of compounds of the invention were prepared in DMSO at 100 times the final assay concentration (n1=n0/3 in 10 points). The compounds were further diluted to 4 times the assay concentration in assay buffer (Life technologies buffer Q, PV5125, diluted 5 times supplemented with 2 mM DTT and 2 mM MnCl2). 2.5 μl of the diluted compounds were added to a 384 well assay plate followed by 2.5 μl of 16.5 nM Vps34 enzyme (Life technologies, PV5126). Enzyme and compounds were pre-incubated at rt for 15 min. Then 5 μl of substrate mix containing 20 μM ATP (Life technologies, PV3227) and 200 μM PI:PS substrate (Life technologies, PV5122) in assay buffer was added to the wells containing compound and enzyme. Mixing was performed by pipetting several times. The reaction was incubated at room temperature for 1 h. Then 5 μl stop-detection mix, prepared as described in the Adapta kinase assay kit instructions (Life technologies, PV5099) containing Adapta Eu-anti-ADP antibody (2.3 nM), Alexa Fluor 647 ADP tracer (9 nM) and EDTA (30 mM) in TR-FRET buffer, was added to quench the reaction. Mixing was performed by pipetting several times. The assay plate was then incubated at room temperature for 30 min and read with Artemis micro plate reader. Percent inhibition of the compounds as compared to DMSO treated control samples was calculated. By the use of Dotmatics software compound concentration versus percent inhibition was fitted to generate IC50 values.).
Chain of Phosphatidylinositol 3-kinase catalytic subunit type 3 (Q8NEB9 whole entry): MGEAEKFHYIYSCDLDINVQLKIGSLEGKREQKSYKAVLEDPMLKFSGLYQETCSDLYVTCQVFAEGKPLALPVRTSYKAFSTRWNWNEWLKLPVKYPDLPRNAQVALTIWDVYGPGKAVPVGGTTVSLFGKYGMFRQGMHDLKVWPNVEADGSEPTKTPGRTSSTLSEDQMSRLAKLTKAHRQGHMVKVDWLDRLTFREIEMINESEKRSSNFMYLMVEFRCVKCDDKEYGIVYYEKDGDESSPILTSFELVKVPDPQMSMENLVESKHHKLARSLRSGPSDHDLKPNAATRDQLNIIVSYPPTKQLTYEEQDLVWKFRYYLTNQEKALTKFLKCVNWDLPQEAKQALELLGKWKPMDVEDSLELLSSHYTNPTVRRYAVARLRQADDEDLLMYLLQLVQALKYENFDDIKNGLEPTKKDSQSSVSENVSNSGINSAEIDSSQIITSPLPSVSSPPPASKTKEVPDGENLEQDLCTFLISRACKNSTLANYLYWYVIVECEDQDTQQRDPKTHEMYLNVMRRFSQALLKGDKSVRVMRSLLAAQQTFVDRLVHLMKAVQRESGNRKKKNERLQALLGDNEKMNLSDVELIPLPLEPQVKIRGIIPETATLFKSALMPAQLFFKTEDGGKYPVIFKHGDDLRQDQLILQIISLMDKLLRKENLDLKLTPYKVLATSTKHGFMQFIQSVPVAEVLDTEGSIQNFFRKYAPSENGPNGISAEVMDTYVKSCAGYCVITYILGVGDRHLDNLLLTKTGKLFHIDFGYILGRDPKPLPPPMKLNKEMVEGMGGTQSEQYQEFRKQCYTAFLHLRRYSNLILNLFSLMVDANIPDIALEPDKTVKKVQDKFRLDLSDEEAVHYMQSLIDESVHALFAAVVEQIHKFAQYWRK

IC50, < 5 nM:
C[C@@H]1COCCN1c1cc(N2CCN(S(=O)(=O)C3CC3)CC2C(F)(F)F)[nH]c(=O)c1 (stereo partly drawn)
C[C@@H]1COCCN1c1cc(N2CCN(S(=O)(=O)N3CCOCC3)CC2C(F)(F)F)[nH]c(=O)c1 (stereo partly drawn)
C[C@@H]1COCCN1c1cc(N2CCN(S(=O)(=O)c3ccnn3C)CC2C(F)(F)F)[nH]c(=O)c1 (stereo partly drawn)

Reference: ChEMBL document CHEMBL5729558, “Morpholinylpyridone compounds” (2023)
